Measurements from ChEMBL document CHEMBL1770109, “SAR studies of pyridazinone derivatives as novel glucan synthase inhibitors” (Bioorg Med Chem Lett, 2011).
Values after ≈ are worked out from the molar mass of the structure shown.

How the values were obtained:
Nakaseomyces glabratus = assay: Antifungal activity against Candida glabrata C624; assay type: functional; conditions: read-out: MIC100
Candida albicans = assay: Antifungal activity against Candida albicans C693; assay type: functional; conditions: for MIC: read-out: MIC100
Beta-1,3-glucan synthase = Beta-1,3-glucan synthase (Candida albicans, UniProt O13428); assay: Inhibition of Candida albicans BWP17 1,3-beta-glucan synthase
Chain of Beta-1,3-glucan synthase (O13428 whole entry): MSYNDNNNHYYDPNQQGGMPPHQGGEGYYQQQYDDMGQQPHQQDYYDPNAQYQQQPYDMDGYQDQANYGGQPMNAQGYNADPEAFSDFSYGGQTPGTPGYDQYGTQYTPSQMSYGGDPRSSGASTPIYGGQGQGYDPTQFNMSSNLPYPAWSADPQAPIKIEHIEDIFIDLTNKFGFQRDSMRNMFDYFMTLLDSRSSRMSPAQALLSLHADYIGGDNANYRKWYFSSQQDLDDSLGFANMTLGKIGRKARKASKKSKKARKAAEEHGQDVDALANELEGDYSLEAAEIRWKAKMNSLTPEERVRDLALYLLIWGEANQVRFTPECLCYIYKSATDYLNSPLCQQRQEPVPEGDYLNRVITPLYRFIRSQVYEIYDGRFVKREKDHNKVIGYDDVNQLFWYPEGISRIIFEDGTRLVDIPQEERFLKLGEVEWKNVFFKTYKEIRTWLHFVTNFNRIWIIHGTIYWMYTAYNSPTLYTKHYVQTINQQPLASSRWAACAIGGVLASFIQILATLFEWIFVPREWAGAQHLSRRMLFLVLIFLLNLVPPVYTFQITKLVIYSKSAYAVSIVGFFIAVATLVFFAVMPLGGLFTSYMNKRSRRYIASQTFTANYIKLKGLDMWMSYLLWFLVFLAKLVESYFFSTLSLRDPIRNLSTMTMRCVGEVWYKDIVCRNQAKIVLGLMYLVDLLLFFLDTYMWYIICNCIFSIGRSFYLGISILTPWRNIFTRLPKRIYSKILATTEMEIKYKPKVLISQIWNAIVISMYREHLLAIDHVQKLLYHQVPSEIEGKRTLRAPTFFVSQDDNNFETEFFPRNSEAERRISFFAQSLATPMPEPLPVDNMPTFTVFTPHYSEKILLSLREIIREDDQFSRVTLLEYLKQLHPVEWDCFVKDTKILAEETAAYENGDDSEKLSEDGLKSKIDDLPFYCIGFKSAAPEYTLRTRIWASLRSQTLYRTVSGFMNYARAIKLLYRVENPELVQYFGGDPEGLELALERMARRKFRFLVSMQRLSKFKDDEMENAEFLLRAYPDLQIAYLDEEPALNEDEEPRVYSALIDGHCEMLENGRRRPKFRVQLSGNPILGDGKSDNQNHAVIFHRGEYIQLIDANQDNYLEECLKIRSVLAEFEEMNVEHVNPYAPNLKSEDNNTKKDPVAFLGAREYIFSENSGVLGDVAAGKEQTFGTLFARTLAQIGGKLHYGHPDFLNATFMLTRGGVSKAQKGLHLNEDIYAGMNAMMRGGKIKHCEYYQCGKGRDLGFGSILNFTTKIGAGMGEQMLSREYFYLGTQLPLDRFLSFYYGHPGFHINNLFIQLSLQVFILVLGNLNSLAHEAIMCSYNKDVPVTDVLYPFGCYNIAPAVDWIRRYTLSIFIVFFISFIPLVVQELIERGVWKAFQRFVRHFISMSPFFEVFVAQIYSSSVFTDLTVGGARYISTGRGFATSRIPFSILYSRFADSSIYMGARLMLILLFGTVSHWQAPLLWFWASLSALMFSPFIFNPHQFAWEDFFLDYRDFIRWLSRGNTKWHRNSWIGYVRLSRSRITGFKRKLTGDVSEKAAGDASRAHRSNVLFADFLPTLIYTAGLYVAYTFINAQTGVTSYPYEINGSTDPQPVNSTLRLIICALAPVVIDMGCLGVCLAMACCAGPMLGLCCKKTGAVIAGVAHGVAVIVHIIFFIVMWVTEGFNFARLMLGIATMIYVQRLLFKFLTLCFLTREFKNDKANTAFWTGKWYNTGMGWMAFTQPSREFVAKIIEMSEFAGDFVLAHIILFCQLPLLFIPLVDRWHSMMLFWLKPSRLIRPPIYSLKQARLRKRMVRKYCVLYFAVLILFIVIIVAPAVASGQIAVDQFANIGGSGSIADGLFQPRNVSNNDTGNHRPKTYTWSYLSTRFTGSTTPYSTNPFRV

[1] = AUC (0 to 6 hrs) in rat at 10 mg/kg, po; assay type: ADME, organism-based; design: time < 6 hr, dose 10 mg/kg, route oral; conditions: plasma

AUC(0-t) at 6 h [1]	Compound	MIC (Nakaseomyces glabratus)	MIC (Candida albicans)	IC50 (Beta-1,3-glucan synthase)	MIC50 (Candida albicans)
	Cc1ccc(CS(=O)(=O)N2CCN(c3cnn(-c4cccc(Cl)c4)c(=O)c3OC3CCCC3)CC2)cc1	0.08 µg/mL (≈ 0.147 µM)	0.31 µg/mL (≈ 0.571 µM)		
	N#Cc1ccc(CS(=O)(=O)N2CCN(c3cnn(-c4cccc(Cl)c4)c(=O)c3OC3CCCC3)CC2)cc1	0.02 µg/mL (≈ 0.0361 µM)	0.13 µg/mL (≈ 0.235 µM)		
	Cn1ccc2ccc(S(=O)(=O)N3CCN(c4cnn(-c5cccc(Cl)c5)c(=O)c4OC4CCCC4)CC3)cc21	0.2 µg/mL (≈ 0.352 µM)		0.282 µM	0.78 µg/mL (≈ 1.37 µM)
290 ng·h/mL	Nc1ccccc1CS(=O)(=O)N1CCN(c2cnn(-c3cccc(Cl)c3)c(=O)c2OC2CCCC2)CC1	0.03 µg/mL (≈ 0.0551 µM)	0.35 µg/mL (≈ 0.643 µM)		
50 ng·h/mL	Nc1cccc(CS(=O)(=O)N2CCN(c3cnn(-c4cccc(Cl)c4)c(=O)c3OC3CCCC3)CC2)c1	0.39 µg/mL (≈ 0.717 µM)	3.13 µg/mL (≈ 5.75 µM)		
	CCOCCOc1cc(-c2ccccc2)ccc1N1CCN(S(=O)(=O)Cc2ccccc2)CC1	> 50 µg/mL	> 50 µg/mL	287 µM	
	O=c1c(OC2CCCC2)c(N2CCN(S(=O)(=O)Cc3ccc([N+](=O)[O-])cc3)CC2)cnn1-c1cccc(Cl)c1	0.05 µg/mL (≈ 0.0871 µM)	0.78 µg/mL (≈ 1.36 µM)		
	O=c1c(OC2CCCC2)c(N2CCN(S(=O)(=O)c3ccc4ccccc4c3)CC2)cnn1-c1cccc(Cl)c1	1.04 µg/mL (≈ 1.84 µM)	33.4 µg/mL (≈ 59.1 µM)	0.131 µM	
	O=c1c(OC2CCCC2)c(N2CCN(S(=O)(=O)CCCc3ccccc3)CC2)cnn1-c1cccc(Cl)c1	3.13 µg/mL (≈ 5.62 µM)	> 50 µg/mL	41.3 µM	
	O=c1c(OC2CCCC2)c(N2CCN(S(=O)(=O)CCc3ccccc3)CC2)cnn1-c1cccc(Cl)c1	0.08 µg/mL (≈ 0.147 µM)	5 µg/mL (≈ 9.21 µM)	1.47 µM	
	O=c1c(OC2CCCC2)c(N2CCN(S(=O)(=O)Cc3cccc(C(F)(F)F)c3)CC2)cnn1-c1cccc(Cl)c1	0.78 µg/mL (≈ 1.31 µM)	> 50 µg/mL		
	CCCCCCc1c(N2CCN(S(=O)(=O)Cc3ccccc3)CC2)ncn(-c2cccc(Cl)c2)c1=O		> 25 µg/mL	2.48 µM	9 µg/mL (≈ 17 µM)
80 ng·h/mL	Nc1ccc(CS(=O)(=O)N2CCN(c3cnn(-c4cccc(Cl)c4)c(=O)c3OC3CCCC3)CC2)cc1	0.2 µg/mL (≈ 0.368 µM)	0.78 µg/mL (≈ 1.43 µM)		
	O=c1c(-c2ccc(F)cc2)c(N2CCN(S(=O)(=O)Cc3ccccc3)CC2)ccn1-c1ccccc1	0.78 µg/mL (≈ 1.55 µM)	> 50 µg/mL	4.77 µM	
	O=c1c(OC2CCCC2)c(N2CCN(S(=O)(=O)Cc3ccc(F)cc3)CC2)cnn1-c1cccc(Cl)c1	0.05 µg/mL (≈ 0.0914 µM)	1.56 µg/mL (≈ 2.85 µM)		
	O=c1c(OC2CCCC2)c(N2CCN(S(=O)(=O)C3CCCC3)CC2)cnn1-c1cccc(Cl)c1	0.1 µg/mL (≈ 0.197 µM)	3.13 µg/mL (≈ 6.17 µM)	1.22 µM	
	COCCS(=O)(=O)N1CCN(c2cnn(-c3cccc(Cl)c3)c(=O)c2OC2CCCC2)CC1	0.2 µg/mL (≈ 0.402 µM)	3.13 µg/mL (≈ 6.3 µM)	0.865 µM	

AUC(0-t) at 6 h [1]	Compound	MIC (Nakaseomyces glabratus)	MIC (Candida albicans)	IC50 (Beta-1,3-glucan synthase)	MIC50 (Candida albicans)
	O=c1c(OC2CCCC2)c(N2CCN(S(=O)(=O)Cc3cccc(B(O)O)c3)CC2)cnn1-c1cccc(Cl)c1	0.42 µg/mL (≈ 0.733 µM)	13.4 µg/mL (≈ 23.4 µM)		
	CCOCCOc1nn(-c2ccccc2)c(=O)c(OCCOCC)c1N1CCN(S(=O)(=O)Cc2ccccc2)CC1	6.25 µg/mL (≈ 10.7 µM)	> 50 µg/mL	7.16 µM	
	O=c1c(-c2ccc(F)cc2)c(N2CCN(S(=O)(=O)Cc3ccccc3)CC2)cnn1-c1ccccc1	0.05 µg/mL (≈ 0.0991 µM)	6.25 µg/mL (≈ 12.4 µM)		
60 ng·h/mL	O=c1c(OC2CCCC2)c(N2CCN(S(=O)(=O)Cc3ccncc3)CC2)cnn1-c1cccc(Cl)c1	< 0.02 µg/mL	0.2 µg/mL (≈ 0.377 µM)		
	O=c1c(OC2CCCC2)c(N2CCN(S(=O)(=O)Cc3ccsc3)CC2)cnn1-c1cccc(Cl)c1	0.02 µg/mL (≈ 0.0374 µM)	2.1 µg/mL (≈ 3.92 µM)	0.411 µM	
	O=c1c(OC2CCCC2)c(N2CCN(S(=O)(=O)c3ccccc3)CC2)cnn1-c1cccc(Cl)c1	0.3 µg/mL (≈ 0.582 µM)	3.1 µg/mL (≈ 6.02 µM)		
	CC(C)(C)S(=O)(=O)N1CCN(c2cnn(-c3cccc(Cl)c3)c(=O)c2OC2CCCC2)CC1	0.1 µg/mL (≈ 0.202 µM)		0.828 µM	0.78 µg/mL (≈ 1.58 µM)
	CCOCCOc1c(N2CCN(S(=O)(=O)Cc3ccccc3)CC2)c(C)nn(-c2ccccc2)c1=O	25 µg/mL (≈ 48.8 µM)	> 50 µg/mL	139 µM	
	O=c1c(OC2CCCC2)c(N2CCN(S(=O)(=O)C3Cc4ccccc4C3)CC2)cnn1-c1cccc(Cl)c1	0.1 µg/mL (≈ 0.18 µM)	1.56 µg/mL (≈ 2.81 µM)	0.522 µM	
	O=c1c(OC2CCCC2)c(N2CCN(S(=O)(=O)c3ccsc3)CC2)cnn1-c1cccc(Cl)c1	0.05 µg/mL (≈ 0.096 µM)	0.78 µg/mL (≈ 1.5 µM)	0.806 µM	
	CCOCCOc1cc(-c2ccccc2)nnc1N1CCN(S(=O)(=O)Cc2ccccc2)CC1	> 25 µg/mL	> 25 µg/mL	76.7 µM	
	CCOCCOc1c(N2CCN(S(=O)(=O)Cc3ccccc3)CC2)cnn(-c2ccccc2)c1=O	0.1 µg/mL (≈ 0.201 µM)	3.13 µg/mL (≈ 6.28 µM)	1.81 µM	
	CCOC(=O)c1ccc(CS(=O)(=O)N2CCN(c3cnn(-c4cccc(Cl)c4)c(=O)c3OC3CCCC3)CC2)cc1	0.78 µg/mL (≈ 1.3 µM)	6.25 µg/mL (≈ 10.4 µM)		
	O=c1c(OC2CCCC2)c(N2CCN(S(=O)(=O)Cc3noc4ccccc34)CC2)cnn1-c1cccc(Cl)c1	0.05 µg/mL (≈ 0.0877 µM)	0.78 µg/mL (≈ 1.37 µM)	0.14 µM	
	O=c1c(OC2CCCC2)c(N2CCN(S(=O)(=O)Cc3ccccc3)CC2)cnn1-c1cccc(Cl)c1	0.02 µg/mL (≈ 0.0378 µM)	0.39 µg/mL (≈ 0.737 µM)	0.378 µM	
130 ng·h/mL	O=C(O)c1ccc(CS(=O)(=O)N2CCN(c3cnn(-c4cccc(Cl)c4)c(=O)c3OC3CCCC3)CC2)cc1	25 µg/mL (≈ 43.6 µM)	> 50 µg/mL		
	O=C(O)CCS(=O)(=O)N1CCN(c2cnn(-c3cccc(Cl)c3)c(=O)c2OC2CCCC2)CC1	> 50 µg/mL	> 50 µg/mL	214 µM	
